Experimental data taken from US4161527A, “Antibiotic compositions” (priority 1976, dated 1979).
Where a name gives a salt, the structure may show the parent alone.

Assays:
[1] = Dissolution time on addition of 3 ml. of distilled water; format: physicochemical; conditions: shaken vigorously
Method: To each of the Samples was added 3 ml. of distilled water and the times of dissolution were measured. […] Provided that, in dissolution, Samples A and B were allowed to stand, while Sample C was shaken vigorously.

[2] = Color of the Samples 3 hours after dissolution; format: physicochemical; conditions: 3 ml. of distilled water
Krebsiella pneumoniae DT = assay: Antibacterial spectrum (agar dilution), M.I.C.; format: cell-based
[3] = tested on: Gram-positive and Gram-negative bacteria; format: cell-based
[4] = tested on: Escherichia coli NIHJ JC-2; assay: Antibacterial spectrum (agar dilution), M.I.C.; format: cell-based; conditions: NIHJJC2
[5] = Storage stability (general statement); format: physicochemical
[6] = tested on: local tissue at the sites of injection; assay: Local reactions at the sites of intramuscular injection (general statement); format: in vivo; conditions: intramuscularly injected
Escherichia coli 0-111 = assay: Antibacterial spectrum (agar dilution), M.I.C.; format: cell-based; conditions: 0111
Source text: (§1) The antibacterial potency (M.I.C.) and toxicity of TTC
(§2) (1) Antibacterial spectrum (agar dilution)

Escherichia coli T-7 = assay: Antibacterial spectrum (agar dilution), M.I.C.; format: cell-based; conditions: T7
Source text: as §1, §2

[7] = Dissolution in a solvent such as distilled water (general statement); format: physicochemical
[8] = tested on: Proteus morganii IFO 3848; assay: Antibacterial spectrum (agar dilution), M.I.C.; format: cell-based; conditions: Morganella morganii, IFO3848
[9] = tested on: Staphylococcus aureus FDA 209 P; assay: Antibacterial spectrum (agar dilution), M.I.C.; format: cell-based; conditions: FDA209
[10] = tested on: Staphylococcus aureus 1840; assay: Antibacterial spectrum (agar dilution), M.I.C.; format: cell-based
[11] = tested on: Proteus vulgaris IFO 3988; assay: Antibacterial spectrum (agar dilution), M.I.C.; format: cell-based; conditions: IFO3988

| SMILES | Dissolution time [1] | Color 3 hours after dissolution [2] | MIC (Krebsiella pneumoniae DT) | antibacterial activity [3] | MIC [4] | stability in storage [5] | local reactions at the sites of injection [6] | MIC (Escherichia coli 0-111) | MIC (Escherichia coli T-7) | dissolution [7] | MIC [8] | MIC [9] | MIC [10] | MIC [11] |
| --- | --- | --- | --- | --- | --- | --- | --- | --- | --- | --- | --- | --- | --- | --- |
| CN(C)CCn1nnnc1SCC1=C(C(=O)O)N2C(=O)[C@@H](NC(=O)Cc3csc(=N)[nH]3)[C@H]2SC1 [TTC hydrate, 7β-[2-(2-imino-4-thiazolin-4-yl)acetamido]-3-{1-[2-(N,N-dimethylamino)ethyl]-1-H-tetrazol-5-yl}thiomethyl-3-cephem-4-carboxylic acid dihydrochloride hydrate] | 180 s | Reddish yellow |  |  |  |  |  |  |  |  |  |  |  |  |
| CN(C)CCn1nnnc1SCC1=C(C(=O)O)N2C(=O)[C@@H](NC(=O)Cc3csc(N)n3)[C@H]2SC1.Cl.Cl [TTC, 7β-[2-(2-imino-4-thiazolin-4-yl)acetamido]-3-{1-[2-(N,N-dimethylamino)ethyl]-1H-tetrazol-5-yl}thiomethyl-3-cephem-4-carboxylic acid dihydrochloride] |  |  | 0.1 µg/mL | strong antibacterial activity against Gram-positive and Gram-negative bacteria | 0.2 µg/mL | stable in storage | necrosis of muscle cells, discoloration or brown degeneration of the local tissue, hyperemia and other local reactions at the sites of injection | 0.05 µg/mL | 1.56 µg/mL | rather slow to be dissolved | 0.39 µg/mL | 0.39 µg/mL | 0.78 µg/mL | 1.56 µg/mL |
